Publication PMC9743598, “OR2AT4 and OR1A2 counterregulate molecular pathophysiological processes of steroid-resistant inflammatory lung diseases in human alveolar macrophages” (Molecular Medicine, 2022)

Target: T1, OR2AT4 (Homo sapiens, UniProt A6NND4)
T1 construct: endogenous full-length receptor in primary human alveolar macrophages from bronchoalveolar lavage; estimated 34 kDa, blot signal about 40 kDa
T1 sequence (A6NND4 1-320): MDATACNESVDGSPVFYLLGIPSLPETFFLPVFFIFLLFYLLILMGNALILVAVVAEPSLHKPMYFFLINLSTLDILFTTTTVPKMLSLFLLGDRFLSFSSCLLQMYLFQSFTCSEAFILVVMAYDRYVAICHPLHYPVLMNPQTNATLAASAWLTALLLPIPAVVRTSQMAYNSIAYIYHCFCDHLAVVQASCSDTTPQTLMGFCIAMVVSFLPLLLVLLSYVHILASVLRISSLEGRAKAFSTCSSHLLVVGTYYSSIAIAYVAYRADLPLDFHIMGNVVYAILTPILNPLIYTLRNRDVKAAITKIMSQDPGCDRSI
Assay: Fura-2 single-cell calcium imaging, primary human alveolar macrophages
Assay type: cell-based
Conditions: agonist; endogenous receptor in native cells; Ringer solution

Compound: CC1=CCC(CCC(C)C(C)O)C1(C)C (stereo not shown) [Sandalore]
- EC50: 190 µM
